According to PubChem BioAssay (NCI):
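Five compound concentrations were applied to cells in 96-well plates for 48 hours; endpoints were derived by simple linear interpolation of the resulting dose-response curve. TGI: concentration producing complete growth inhibition.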

Assays:
Test in all cases: inhibition of tumour cell growth, NCI panel, 48 h
786-0 renal = system: 786-0 renal
A498 renal = system: A498 renal
A549 NSCLC = system: A549 NSCLC
ACHN renal = system: ACHN renal
BT-549 breast = system: BT-549 breast
CAKI-1 renal = system: CAKI-1 renal
CCRF-CEM leukemia = system: CCRF-CEM leukemia
COLO 205 colon = system: COLO 205 colon
DU-145 prostate = system: DU-145 prostate
EKVX NSCLC = system: EKVX NSCLC
HCC-2998 colon = system: HCC-2998 colon
HCT-116 colon = system: HCT-116 colon
HCT-15 colon = system: HCT-15 colon
HL-60(TB) leukemia = system: HL-60(TB) leukemia
HOP-62 NSCLC = system: HOP-62 NSCLC
HOP-92 NSCLC = system: HOP-92 NSCLC
HS 578T breast = system: HS 578T breast
IGROV1 ovarian = system: IGROV1 ovarian
K-562 leukemia = system: K-562 leukemia
KM12 colon = system: KM12 colon
LOX IMVI melanoma = system: LOX IMVI melanoma
M14 melanoma = system: M14 melanoma
MALME-3M melanoma = system: MALME-3M melanoma
MCF7 breast = system: MCF7 breast
MDA-MB-231 breast = system: MDA-MB-231 breast
MDA-MB-435 = system: MDA-MB-435
MDA-N = system: MDA-N
MOLT-4 leukemia = system: MOLT-4 leukemia
NCI-H23 lung = system: NCI-H23 lung
NCI-H460 lung = system: NCI-H460 lung
NCI-H522 lung = system: NCI-H522 lung
OVCAR-3 ovarian = system: OVCAR-3 ovarian
OVCAR-4 ovarian = system: OVCAR-4 ovarian
OVCAR-5 ovarian = system: OVCAR-5 ovarian
OVCAR-8 ovarian = system: OVCAR-8 ovarian
PC-3 prostate = system: PC-3 prostate
RPMI-8226 leukemia = system: RPMI-8226 leukemia
RXF 393 renal = system: RXF 393 renal
SF-268 CNS = system: SF-268 CNS
SF-295 CNS = system: SF-295 CNS
SF-539 CNS = system: SF-539 CNS
SK-MEL-2 melanoma = system: SK-MEL-2 melanoma
SK-MEL-28 melanoma = system: SK-MEL-28 melanoma
SK-MEL-5 melanoma = system: SK-MEL-5 melanoma
SK-OV-3 ovarian = system: SK-OV-3 ovarian
SN12C renal = system: SN12C renal
SNB-19 CNS = system: SNB-19 CNS
SNB-75 CNS = system: SNB-75 CNS
SR leukemia = system: SR leukemia
SW-620 colon = system: SW-620 colon
T-47D breast = system: T-47D breast
TK-10 renal = system: TK-10 renal
U251 CNS = system: U251 CNS
UACC-257 melanoma = system: UACC-257 melanoma
UACC-62 melanoma = system: UACC-62 melanoma
UO-31 renal = system: UO-31 renal

Work on CC1=CCC[C@@](C)(O)[C@@H]2C[C@H]3C(CSc4ccccc4)C(=O)O[C@H]3[C@@H](O2)[C@H](C)CCC1 (stereo partly specified) yielded a TGI (786-0 renal) of 67.5 µM, a TGI (A498 renal) of 45 µM and a TGI (A549 NSCLC) of 27.1 µM. For the same molecule, the TGI (ACHN renal) was 25.5 µM, the TGI (BT-549 breast) was 46.2 µM and the TGI (CAKI-1 renal) was 64.6 µM. The TGI (CCRF-CEM leukemia) was over 100 µM, the TGI (COLO 205 colon) was 40.4 µM and the TGI (DU-145 prostate) was 76.6 µM. It also gave a TGI (EKVX NSCLC) of 63.2 µM, a TGI (HCC-2998 colon) of 30.3 µM and a TGI (HCT-116 colon) of over 100 µM. It also gave a TGI (HCT-15 colon) of 67.9 µM, a TGI (HL-60(TB) leukemia) of over 100 µM and a TGI (HOP-62 NSCLC) of 34.5 µM. The TGI (HOP-92 NSCLC) was over 100 µM, the TGI (HS 578T breast) was 56.4 µM and the TGI (IGROV1 ovarian) was 85.1 µM. It also gave a TGI (K-562 leukemia) of over 100 µM, a TGI (KM12 colon) of 22.6 µM and a TGI (LOX IMVI melanoma) of 81.6 µM. The TGI (M14 melanoma) was 26.9 µM, the TGI (MALME-3M melanoma) was 32.1 µM and the TGI (MCF7 breast) was 29.4 µM. The TGI (MDA-MB-231 breast) was over 100 µM, the TGI (MDA-MB-435) was 72 µM and the TGI (MDA-N) was 86.2 µM. The TGI (MOLT-4 leukemia) was over 100 µM, the TGI (NCI-H23 lung) was 33.8 µM and the TGI (NCI-H460 lung) was 20.4 µM. The TGI (NCI-H522 lung) was 35.9 µM, the TGI (OVCAR-3 ovarian) was 26.5 µM and the TGI (OVCAR-4 ovarian) was 45 µM. For the same molecule, the TGI (OVCAR-5 ovarian) was 30.7 µM, the TGI (OVCAR-8 ovarian) was 32.4 µM and the TGI (PC-3 prostate) was 22.2 µM. The TGI (RPMI-8226 leukemia) was 84 µM, the TGI (RXF 393 renal) was 30.4 µM and the TGI (SF-268 CNS) was over 100 µM. For the same molecule, the TGI (SF-295 CNS) was 25.3 µM, the TGI (SF-539 CNS) was 30.9 µM and the TGI (SK-MEL-2 melanoma) was 32.3 µM. For the same molecule, the TGI (SK-MEL-28 melanoma) was 52.9 µM, the TGI (SK-MEL-5 melanoma) was 38.3 µM and the TGI (SK-OV-3 ovarian) was 37.9 µM. It also gave a TGI (SN12C renal) of over 100 µM, a TGI (SNB-19 CNS) of 26.7 µM and a TGI (SNB-75 CNS) of 31.1 µM. For the same molecule, the TGI (SR leukemia) was over 100 µM, the TGI (SW-620 colon) was 93.2 µM and the TGI (T-47D breast) was 93.7 µM. The TGI (TK-10 renal) was 33.5 µM, the TGI (U251 CNS) was 66.8 µM and the TGI (UACC-257 melanoma) was 39.3 µM. For the same molecule, the TGI (UACC-62 melanoma) was 34.1 µM and the TGI (UO-31 renal) was 24.1 µM.
